Results taken from US12162878B2 (HINOVA PHARMACEUTICALS INC., priority 2018, dated 2024).

Experiments:
[1] = biological target: BRD2(1,2) (Homo sapiens (Human), UniProt P25440); assay: AlphaScreen binding of compounds on BRD2 (D1+D2); details: read-out: IC50 against BRD2(1,2)
Excerpt: (§1) Homogeneous time-resolved fluorescence technology (HTRF) was used to determine the binding effect of compounds on BRD4 (D1+D2) and BRDT (D1) proteins, as well as AlphaScreen method was used to detect the binding effect of compounds on BRD2 (D1+D2) and BRD3 (D1+D2) proteins.
(§2) The compounds were screened in vitro, and each compound was serially diluted to 10 concentrations. Four proteins BRD4 (D1+D2), BRDT (D1), BRD2 (D1+D2) and BRD3 (D1+D2) were chosen to determine the IC50 values of compounds (see Table 1).
(§3) 4. Compound treatment: The test compound was dissolved in dimethyl sulfoxide (DMSO), and the storage concentration was 10 mM.
(§4) 6. AlphaScreen Detection Procedures:
(§5) 1) Preparing One-Fold Concentration of Detection Buffer
(§6) One-fold concentration of detection buffer was prepared (Improved HEPES buffer)
(§7) 2) Gradient Dilution of Compounds
(§8) Echo automatic sampler was used to transfer the compound to the detection plate for gradient dilution, so that the final concentration of dimethyl sulfoxide was 0.1%.
(§9) 3) Preparation of Protein Solution
(§10) The protein was dissolved in one-fold concentration of detection buffer.
(§11) 4) Preparation of Substrate Solution
(§12) The peptide was dissolved in one-fold concentration of detection buffer to prepare the substrate solution.
(§13) 5) 5 μL protein solution was transferred to the detection plate, and one-fold concentration of detection buffer (5 μL) was placed in the negative control wells.
(§14) 6) The plate was incubated for 15 min at room temperature.
(§15) 7) 5 μL substrate solution was added to each well to start the reaction.
(§16) 8) The plate was incubated for additional 60 min at room temperature.
(§17) 9) Preparation of acceptor solution and donor solution in one-fold concentration of assay buffer Acceptor solution (15 μL) and donor solution (15 μL) were respectively added, and then incubated at room temperature for 60 min and protected against exposure to light.
(§18) 10) The endpoint was read in EnSpire and Alpha mode.
(§19) The experimental data were recorded in an Excel file and equation (1) was used to get the inhibition rate. Inh%=(Max−Signal)/(Max−Min)*100 Equation (1):
(§20) The obtained data were input into GraphPad software, and equation (2) was used to obtain the IC50 value. Y=Bottom+(Top−Bottom)/(1+10^((Log IC50−X)*Hill Slope)) Formula (2): […]
(§21) Wherein, Y axis was the inhibition rate, and the X axis was the compound concentration.

[2] = biological target: BRD4(1,2) (Homo sapiens (Human), UniProt O60885); assay: HTRF binding of compounds on BRD4 (D1+D2); details: read-out: IC50 against BRD4(1,2)
Excerpt: as §1, §2, §3
(§22) 5. Steps for Homogeneous Time-Resolved Fluorescence Detection:
(§23) 1) According to the arrangement of the detection plate, all compounds were diluted in Echo plate.
(§24) The final dilution concentration of DMSO is 0.1%.
(§25) 2) The compound or DMSO was transferred to a 384-well detection plate with the Echo automatic sampler.
(§26) 3) Two-fold concentration of the mixture of protein and peptide was added to the detection plate.
(§27) 4) Two-fold concentration of mixed detection solution was added to the test plate, and shaken for 30 s.
(§28) 5) Incubating for 2 h at room temperature.
(§29) 6) Fluorescence signal was read on Envision multi-function microplate reader (excitation light wavelength being 340 nm, and emission light wavelength being 615 nm and 665 nm).
(§30) The experimental data were recorded in an Excel file, and equation (1) was used to obtain the inhibition rate. Inh%=(Max−Signal)/(Max−Min)*100 Equation (1):
(§31) The obtained data was recorded in GraphPad software, and equation (2) was used to provide the IC50 values. Y=Bottom+(Top−Bottom)/(1+10^((Log IC50−X)*Hill Slope)) Equation (2): […]
(§32) Y axis was the inhibition rate, and X axis was the compound concentration.

[3] = biological target: BRD3(1,2) (Homo sapiens (Human), UniProt Q15059); assay: AlphaScreen binding of compounds on BRD3 (D1+D2); details: read-out: IC50 against BRD3(1,2)
BRD3(1,2), sequence (Q15059 29-417): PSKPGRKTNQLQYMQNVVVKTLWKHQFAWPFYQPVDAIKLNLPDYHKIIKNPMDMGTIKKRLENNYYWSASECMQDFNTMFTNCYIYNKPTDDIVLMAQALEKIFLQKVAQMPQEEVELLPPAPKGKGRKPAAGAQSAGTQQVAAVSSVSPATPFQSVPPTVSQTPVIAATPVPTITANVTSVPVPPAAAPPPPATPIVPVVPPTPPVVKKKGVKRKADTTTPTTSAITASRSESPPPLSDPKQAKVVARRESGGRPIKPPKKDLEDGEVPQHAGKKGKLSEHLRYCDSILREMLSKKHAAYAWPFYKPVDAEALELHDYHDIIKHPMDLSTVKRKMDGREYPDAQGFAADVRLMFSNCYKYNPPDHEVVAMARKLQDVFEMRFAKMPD
Excerpt: as §1, §2, §3, §4, §5, §6, §7, §8, §9, §10, §11, §12, §13, §14, §15, §16, §17, §18, §19, §20, §21

[4] = biological target: BRDT(D1) (Homo sapiens (Human), UniProt Q58F21); assay: HTRF binding of compounds on BRDT (D1); details: read-out: IC50 against BRDT(D1)
Excerpt: as §1, §2, §3, §22, §23, §24, §25, §26, §27, §28, §29, §30, §31, §32

[5] = tested on: CWR22RV1 cells; assay: Inhibition of proliferation of CWR22RV1 cells (CCK-8); format: cell-based, human; details: Homo sapiens, CWR22Rv1, 144 h, 6 days
Outline: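 Cells seeded at 1500/well, cultured overnight, then exposed to compounds in 3-fold dilutions (9 concentrations from 10 μM top final, 0.1% DMSO) for 6 days at 37 °C. Viability read by CCK-8 absorbance at 450 nm after 2.5 h; IC50 from dose-response inhibition fit.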

BRD2(1,2), sequence (P25440 65-459): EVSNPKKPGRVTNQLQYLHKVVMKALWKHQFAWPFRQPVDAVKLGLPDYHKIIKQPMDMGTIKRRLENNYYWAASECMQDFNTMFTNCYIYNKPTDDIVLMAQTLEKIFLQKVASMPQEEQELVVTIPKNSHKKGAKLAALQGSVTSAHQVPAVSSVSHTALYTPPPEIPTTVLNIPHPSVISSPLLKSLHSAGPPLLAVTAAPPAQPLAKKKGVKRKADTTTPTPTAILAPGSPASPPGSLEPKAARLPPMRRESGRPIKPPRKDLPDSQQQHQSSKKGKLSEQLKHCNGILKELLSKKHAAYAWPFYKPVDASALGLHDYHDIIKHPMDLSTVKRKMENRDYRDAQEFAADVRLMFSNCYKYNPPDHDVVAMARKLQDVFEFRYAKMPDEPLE

Row | SMILES | IC50 [1] [nM] | IC50 [2] [nM] | IC50 [3] [nM] | IC50 [4] [nM] | IC50 [5] [nM]
1 | [2H]C([2H])([2H])n1cc(-c2cc(NS(=O)(=O)CC)ccc2N2CCC3(CC2)CC3)c2cc[nH]c2c1=O [Compound 41] | 2.3 | 14 | 5.2 | 30 | 5
2 | [2H]C([2H])([2H])n1cc(-c2cc(S(=O)(=O)CC)ccc2N2CCC3(CC3)C2)c2cc[nH]c2c1=O [Compound 55, 4-(5(ethylsulfonyl)-2-(5-aza-spiro[2.4]heptan-5-yl)phenyl)-6-trideuteromethyl-1H-pyrrolo[2,3-c]pyridin-7(6H)-one] | – | – | – | – | 21
3 | [2H]C([2H])([2H])n1cc(-c2cc(S(C)(=O)=O)ccc2N2CCC3(CC2)CC3(F)F)c2cc[nH]c2c1=O [Compound 184, 4-(2-(1,1-difluoro-6-aza-spiro[2.5]octan-6-yl)-5-(methylsulfonyl)phenyl)-6-trideuteromethyl-1H-pyrrolo[2,3-c]pyridin-7(6H)-one] | 2 | 6.9 | 4.7 | 19 | 8.1
4 | [2H]C([2H])([2H])n1cc(-c2cc(S(C)(=O)=O)c(F)cc2N2CCC3(CC2)CC3(F)F)c2cc[nH]c2c1=O [Compound 219, 4-(2-(1,1-difluoro-6-aza-spiro[2.5]octan-6-yl)-4-fluoro-5-(methylsulfonyl)phenyl)-6-trideuteromethyl-1H-pyrrolo[2,3-c]pyridin-7(6H)-one] | 1.8 | 12 | 6.7 | 40 | 7.1
